According to patent US7169806B2, “Antidiabetic agents” (Ferring BV, priority 1999, dated 2007):

Test system: male Zucker Fatty Rats
Test: In vivo activity in glucose tolerance model (oral glucose challenge)
Design: species or system rat
Settings: mean ± SE, n = 4; for Blood glucose, t = 10: t = 10 minutes; for Blood glucose, t = 20: t = 20 minutes; for Blood glucose, t = 30: t = 30 minutes; for Blood glucose, t = 60: t = 60 minutes; for Blood glucose, t = 120: t = 120 minutes
Procedure: The activity of the compounds was investigated in male Zucker Fatty Rats between 10 and 20 weeks of age. The animals were fasted overnight and then administered with the test compound (10 mg/kg) as a solution by oral gavage. One hour later hour a blood sample (200 μl) is taken from the tail vein to establish a baseline (t=0) glucose level, then the animals are given glucose (1 g/kg as a 40% wt/vol solution) orally. Further blood samples are taken at t=10, 20, 30, 60 and 120 minutes. Glucose is determined by an enzymatic assay.
In a separate experiment the test compound was given at the same dose (10 mg/kg) but 12 hours before the oral glucose challenge.

[1] = 10 mg/kg oral gavage 1 hour before oral glucose (1 g/kg), baseline t = 0
[2] = 10 mg/kg oral gavage 1 hour before oral glucose (1 g/kg)
[3] = 10 mg/kg given 12 hours before the oral glucose challenge

SMILES	Blood glucose, t = 0 [1] [mg/dL]	Blood glucose, t = 10 [2] [mg/dL]	Blood glucose, t = 20 [2] [mg/dL]	Blood glucose, t = 30 [2] [mg/dL]	Blood glucose, t = 60 [2] [mg/dL]	Blood glucose, t = 120 [2] [mg/dL]	AUC (area under the concentration-time curve) of blood glucose [3]	Blood glucose, t = 0 (10 mg/kg given 12 hours before the oral glucose challenge, t = 0) [mg/dL]	Blood glucose, t = 10 [3] [mg/dL]	Blood glucose, t = 20 [3] [mg/dL]	Blood glucose, t = 30 [3] [mg/dL]	Blood glucose, t = 60 [3] [mg/dL]	Blood glucose, t = 120 [3] [mg/dL]
CC[C@H](C)[C@H](NC(=O)OC(C)OC(C)=O)C(=O)N1CCC[C@H]1C#N (stereo partly drawn) [Example 2, (2S)-1-(N′-(1″-Acetoxyethoxycarbonyl)isoleucyl)pyrrolidine-2-carbonitrile]	80.2 ± 4.2	122.2 ± 7.8	117.8 ± 4.8	104.4 ± 5.6	117.6 ± 6.7	111.3 ± 12.1	–	–	–	–	–	–	–
CC(=O)OC(C)OC(=O)N[C@H](C(=O)N1CCC[C@H]1C#N)C(C)(C)C (stereo partly drawn) [Example 1, (2S)-1-((2′S)-2′-(1″-Acetoxyethoxycarbonylamino)-3′,3′-dimethylbutanoyl)pyrrolidine-2-carbonitrile]	–	–	–	–	–	–	2430 ± 591	83.7 ± 3.8	113.5 ± 10.8	111.3 ± 9.9	91.9 ± 11.8	99.3 ± 10.0	116.9 ± 14.4
CC[C@H](C)[C@H](NC(=O)CN)C(=O)N1CCC[C@H]1C#N [Example 5, (2S)-1-(Glycylisoleucyl)pyrrolidine-2-carbonitrile]	80.5 ± 1.4	141.3 ± 14.5	134.2 ± 10.3	129.2 ± 8.2	114.6 ± 8.1	121.2 ± 5.8	–	–	–	–	–	–	–
CC[C@H](C)[C@H](N)C(=O)N1CCC[C@H]1C#N [Reference, (2S)-1-(Isoleucyl)pyrrolidine-2-carbonitrile, reference compound]	91.4 ± 5.2	125.8 ± 8.9	110.0 ± 21.5	110.9 ± 4.4	112.2 ± 7.5	108.7 ± 8.9	–	–	–	–	–	–	–
CC[C@H](C)[C@H](NC(=O)OC)C(=O)N1CCC[C@H]1C#N [Example 3, (2S)-1-(N′-(Methoxycarbonyl)isoleucyl)pyrrolidine-2-carbonitrile]	86.4 ± 3.4	175.1 ± 3.8	148.5 ± 23.2	136.7 ± 16.9	120.6 ± 8.3	101.9 ± 4.5	–	–	–	–	–	–	–
